Source: the NIST ThermoML archive (doi:10.1021/acs.jced.9b00607)
Numbers after ± are expanded uncertainties.

Experiments:
[1] = wn = mass fraction of the nth substance listed; details: 102 kPa, Liquid, w2 = 0; for viscosity: Falling or rolling sphere viscometry; for mass density: Vibrating tube method
[2] = 102 kPa, Liquid; for viscosity: Falling or rolling sphere viscometry; for mass density: Vibrating tube method

OCCO [1,2-ethanediol] + CN(CCO)CCO
[1]
Details | mass density [kg/m3] | viscosity [mPa·s]
283.15 K | 1120 ± 0.2 | 34.07 ± 4.1
298.15 K | – | 17.27 ± 1.1
313.15 K | 1099.1 ± 0.3 | 9.69 ± 1.1
323.15 K | 1091.6 ± 0.1 | 6.81 ± 0.36
333.15 K | 1085 ± 0.1 | 5.28 ± 0.47
343.15 K | 1077.6 ± 0.1 | 4.06 ± 0.46
353.15 K | 1070.1 ± 0.1 | 3.21 ± 0.31

OCCO [1,2-ethanediol]
[2]
Details | mass density [kg/m3] | viscosity [mPa·s]
283.15 K | 1120 ± 0.2 | 34.07 ± 4.1
298.15 K | – | 17.27 ± 1.1
313.15 K | 1099.1 ± 0.3 | 9.69 ± 1.1
323.15 K | 1091.6 ± 0.1 | 6.81 ± 0.36
333.15 K | 1085 ± 0.1 | 5.28 ± 0.47
343.15 K | 1077.6 ± 0.1 | 4.06 ± 0.46
353.15 K | 1070.1 ± 0.1 | 3.21 ± 0.31

O [water]
[2]
Details | mass density [kg/m3] | viscosity [mPa·s]
283.15 K | 999.9 ± 0.1 | 1.32 ± 0.01
298.15 K | 997.2 ± 0.1 | 0.91 ± 0.01
313.15 K | 992.3 ± 0.1 | 0.67 ± 0.01
323.15 K | 988.3 ± 0.1 | 0.57 ± 0.01
333.15 K | 983.5 ± 0.1 | –
343.15 K | 978.1 ± 0.1 | –
353.15 K | 972.3 ± 0.1 | –

CN(CCO)CCO [N-methyldiethanolamine]
[2]
Details | mass density [kg/m3] | viscosity [mPa·s]
283.15 K | 1048 ± 0.3 | 198.15 ± 9.4
298.15 K | 1036.8 ± 0.3 | 74.87 ± 1.5
313.15 K | 1025.3 ± 0.3 | 35.05 ± 1.1
323.15 K | 1017.7 ± 0.2 | 21.96 ± 0.43
333.15 K | 1010 ± 0.2 | 14.83 ± 0.49
343.15 K | 1002.2 ± 0.2 | 10.29 ± 0.54
353.15 K | 994.5 ± 0.2 | 7.4 ± 0.32
